Measured values from US12195490B2, “STRAD-binding agents and uses thereof” (The Regents of the University of California, priority 2020, dated 2025).
Where a name gives a salt, the structure may show the parent alone.

system: ACHN cell line; test: drug screen of the SelleckChem kinase inhibitor library with and without 5 uM SU-329, Cell-Titer Glo after 5 days; type: cell-based; conditions: kinase inhibitor at 200 nM with and without 5 uM SU329; ACHN cell line; 5 days; Cell-Titer Glo

| Compound | log2fc |
| --- | --- |
| Skepinone-L | −0.7997 |
| CCN1CCN(Cc2ccc(Nc3ncc(F)c(-c4cc(F)c5nc(C)n(C(C)C)c5c4)n3)nc2)CC1 [abemaciclib (LY2835219)] | 0.1618 |
| COCC(=O)NC/C=C/c1ccc2ncnc(Nc3ccc(Oc4ccc(C)nc4)c(C)c3)c2c1 [CP-724714, reference compound] | 0.2836 |
| Cc1[nH]nc2ccc(-c3cncc(OC[C@@H](N)Cc4ccccc4)c3)cc12 [A-674563] | −0.6438 |
| COc1cc2nccc(Oc3ccc(NC(=O)Nc4ccc(F)cc4F)c(F)c3)c2cc1OC [Ki8751] | 0.1011 |
| CN1CCC(CNc2ccc3ncc(-c4cccc(OC(F)(F)F)c4)n3n2)CC1 [SGI-1776 free base] | −0.0254 |
| Oc1cc(O)cc(/C=C/c2ccc(O)c(O)c2)c1 [Piceatannol] | 0.5447 |
| FC(F)c1nc2ccccc2n1-c1nc(N2CCOCC2)nc(N2CCOCC2)n1 [ZSTK474] | −0.8509 |
| COc1cc2nccc(Oc3ccc(NC(=O)Nc4cc(C)on4)c(Cl)c3)c2cc1OC [Tivozanib (AV-951)] | 0.798 |
| O=C(NOC[C@H](O)CO)c1ccc(F)c(F)c1Nc1ccc(I)cc1F [PD0325901] | 0.3925 |
| CNC(=O)c1cc(Oc2ccc(NC(=O)Nc3ccc(Cl)c(C(F)(F)F)c3)cc2)ccn1 [Sorafenib, sorafenib, reference compound] | 0.2462 |
| Cc1ccc(NC(=O)c2cccc(C(C)(C)C#N)c2)cc1Nc1ccc2ncn(C)c(=O)c2c1 [AZ 628] | 0.4319 |
| COc1cc(Nc2ncc(F)c(Nc3ccc4c(n3)N(COP(=O)(O)O)C(=O)C(C)(C)O4)n2)cc(OC)c1OC [Fostamatinib (R788)] | 0.7242 |
| Cn1cnc(N)c2ncnc1-2 [3-Methyladenine (3-MA)] | 0.3232 |
| Cc1c(F)cc(C(=O)NC2CC2)cc1-c1ccc(C(=O)NCC(C)(C)C)cn1 [Losmapimod (GW856553X)] | −0.5236 |
| C[S+]([O-])c1ccc(-c2nc(-c3ccc(F)cc3)c(-c3ccncc3)[nH]2)cc1 (stereo not shown) [SB203580] | −0.09424 |
| CNC(=O)c1cc(Oc2ccc(NC(=O)Nc3ccc(Cl)c(C(F)(F)F)c3)cc2)ccn1 [Sorafenib Tosylate] | −0.2533 |
| CCn1c2ccccc2c2cc(Nc3ccnc(NCCCN4CCOCC4)n3)ccc21 [EHop-016] | 0.1156 |
| CN(C)C/C=C/C(=O)Nc1cc2c(Nc3ccc(F)c(Cl)c3)ncnc2cc1O[C@H]1CCOC1 [Afatinib (BIBW2992), afatinib, reference compound] | 0.04313 |
| C=CCc1ccc(O)c(-c2ccc(O)c(CC=C)c2)c1 [Honokiol] | 0.09484 |
| CC(C)(C)NS(=O)(=O)c1cncc(-c2cc(F)c3nc(N)nn3c2)c1 [CZC24832] | 0.2139 |
| OCCn1cc(-c2cnc3nnn(Cc4ccc5ncccc5c4)c3n2)cn1 [PF-04217903] | 0.2177 |
| COc1ccc2cc(-c3nc(-c4ccc([S+](C)[O-])cc4)[nH]c3-c3ccncc3)ccc2c1 (stereo not shown) [Tie2 kinase inhibitor] | −0.08697 |
| O=C(NC(NC(=S)Nc1ccc(F)c([N+](=O)[O-])c1)C(Cl)(Cl)Cl)C(c1ccccc1)c1ccccc1 (stereo not shown) [CGK 733] | 0.1923 |
| O=C(NCc1cccc(O)c1)Nc1nc(-c2ccncc2)cs1 [RKI-1447] | −0.8453 |
| COc1ccc(COc2cc3oc(=O)c4cc(C(C)O)ccc4c3cc2OC)cc1 (stereo not shown) [Palomid 529 (P529)] | 0.3192 |
| Cl.Cl.NC1(c2ccc(-c3nc4ccn5c(=O)[nH]nc5c4cc3-c3ccccc3)cc2)CCC1 [MK-2206 2HCl] | −0.1575 |
| CNC(=O)c1ccccc1Nc1nc(Nc2ccc(N3CCOCC3)cc2OC)ncc1Cl [TAE226 (NVP-TAE226)] | −0.08897 |

| Compound | log2fc |
| --- | --- |
| C=CC(=O)Nc1cccc(Nc2nc(Nc3ccc(Oc4ccnc(C(=O)NC)c4)cc3)ncc2F)c1 [CNX-774] | −0.2519 |
| N#CC[C@H](C1CCCC1)n1cc(-c2ncnc3[nH]ccc23)cn1 [Ruxolitinib (INCB018424)] | −0.1253 |
| O=C(Nc1ccc(OC(F)(F)F)cc1)c1sccc1NCc1ccnc2ccccc12 [OSI-930] | −0.2273 |
| CCc1cnn2c(NCc3ccc[n+]([O-])c3)cc(N3CCCC[C@H]3CCO)nc12 [Dinaciclib (SCH727965)] | 1.402 |
| COc1cc(N2CCC(N(C)C)CC2)ccc1Nc1ncc(Cl)c(Nc2ccccc2P(C)(C)=O)n1 [ALK-IN-1] | −0.4692 |
| COc1cc2ncnc(Nc3cccc(Cl)c3)c2cc1OC [AG-1478 (Tyrphostin AG-1478), AG-1478, reference compound] | 0.2903 |
| COc1cccc(-c2cc(=O)c3ccccc3o2)c1N [PD98059, reference compound] | 0.3369 |
| CCN1CCN(Cc2ccc(C(=O)Nc3ccc(C)c(Oc4ccc5c(c4)CC(=O)N5)c3)cc2C(F)(F)F)CC1 [DDR1-IN-1] | −0.4228 |
| CO[C@@H](C(=O)N1Cc2[nH]nc(NC(=O)c3ccc(N4CCN(C)CC4)cc3)c2C1)c1ccccc1 [Danusertib (PHA-739358)] | −0.1537 |
| Clc1ccc(C2(c3ccc(-c4cn[nH]c4)cc3)CCNCC2)cc1 [AT7867] | −0.935 |
| Nc1ncnc2c1c(-c1cccc(OCc3ccccc3)c1)cn2C1CC(CN2CCC2)C1 (stereo not shown) [NVP-AEW541] | 0.2179 |
| O=c1ncn2nc(Sc3ccc(F)cc3F)ccc2c1-c1c(Cl)cccc1Cl [VX-745] | −0.2953 |
| CC(C)(C)c1cc(C=C(C#N)C#N)cc(Br)c1O [AG-1024] | −0.3636 |
| C=CC(=O)Nc1cccc(Nc2nc(Nc3ccc(NC4CN(CCF)C4)cc3OC)ncc2C(F)(F)F)c1 [CNX-2006] | 0.1218 |
| N[C@@H]1CCCN(c2c(/C=C3\SC(=O)NC3=O)cccc2-c2ccccc2)C1 [AZD1208] | −0.4967 |
| Cc1cnc(-c2cnc(NCCNc3ccc(C#N)cn3)nc2-c2ccc(Cl)cc2Cl)[nH]1.Cl [CHIR-99021 (CT99021) HCl] | 0.9577 |
| COc1cc2nccc(Oc3ccc(NC(=O)NC4CC4)c(Cl)c3)c2cc1C(N)=O [Lenvatinib (E7080)] | −0.314 |
| COc1cc2c(c(OC)c1OC)-c1c(cc3c(c1OC)OCO3)CC(C)C(C)C2 (stereo not shown) [Schisandrin B (Sch B)] | 0.5674 |
| Cc1ncc(-c2ccnc(Nc3ccc(S(C)(=O)=O)cc3)n2)n1C(C)C [AZD5438] | 1.871 |
| CNc1nc(Nc2cn(C(C)(C)C#N)nc2C)ncc1C(F)(F)F [GNE-0877] | 0.3098 |
| N#Cc1c(Oc2ccc(F)c(NC(=O)Cc3cccc(C(F)(F)F)c3)c2)ccc2nc(NC(=O)C3CC3)sc12 [TAK-632] | 0.4732 |
| Cc1cc(Nc2cc(CN3CCOCC3)c3nc(C)c(Cc4ccc(Cl)cc4F)n3n2)n[nH]1 [Gandotinib (LY2784544)] | 1.04 |
| CC1(C)CNc2cc(NC(=O)c3cccnc3NCc3ccncc3)ccc21.O=P(O)(O)O.O=P(O)(O)O [Motesanib Diphosphate (AMG-706)] | −0.1118 |
| O=c1[nH]c2ccc(Cl)cc2c(N[C@@H]2CN3CCC2CC3)c1-c1nc2ccccc2[nH]1 [CHIR-124] | 1.257 |
| CC[C@@H]1C(=O)N(C)c2cnc(Nc3ccc(C(=O)NC4CCN(C)CC4)cc3OC)nc2N1C1CCCC1 [BI 2536] | 1.415 |
| COc1ccccc1-c1cc(Nc2cccc(CS(N)(=O)=O)c2)ncn1 [LDC000067] | −0.05049 |
| CC1=C(C(=O)Nc2cc3cn[nH]c3cc2F)C(c2ccc(C(F)(F)F)cc2)CC(=O)N1 (stereo not shown) [GSK429286A] | −0.03939 |
